Experimental data published in publication PMC4063337, “Structure–Activity Relationships of Quinoxaline-Based 5-HT3A and 5-HT3AB Receptor-Selective Ligands” (Chemmedchem, 2013).

How the values were obtained:
[1] = biological target: T1, 5-HT3AB receptor (Homo sapiens, UniProt O95264+P46098); assay: [3H]granisetron competition binding, HEK293 membranes; conditions: for Ki: read-out: pKi (AB) (converted)
T1 construct: gene HTR3A; heteromeric (pentameric) receptor expressed recombinantly in HEK293 cells; cell membranes; sites at A+A- and possibly A+B- interfaces; with 5-hydroxytryptamine receptor 3B
T1 sequence (P46098 24-478): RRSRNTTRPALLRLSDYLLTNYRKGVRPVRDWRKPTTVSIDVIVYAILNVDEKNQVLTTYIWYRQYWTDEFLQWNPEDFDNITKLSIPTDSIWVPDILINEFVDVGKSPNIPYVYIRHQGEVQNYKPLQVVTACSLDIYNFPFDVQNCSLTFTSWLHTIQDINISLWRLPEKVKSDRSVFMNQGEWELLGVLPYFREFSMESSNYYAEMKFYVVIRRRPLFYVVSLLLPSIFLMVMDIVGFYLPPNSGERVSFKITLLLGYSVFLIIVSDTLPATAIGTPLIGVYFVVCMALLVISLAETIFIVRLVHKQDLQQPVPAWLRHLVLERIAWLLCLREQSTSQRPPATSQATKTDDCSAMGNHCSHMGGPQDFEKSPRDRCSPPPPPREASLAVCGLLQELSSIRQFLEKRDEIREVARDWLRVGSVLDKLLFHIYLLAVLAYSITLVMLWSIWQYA
T1 sequence (O95264 22-441): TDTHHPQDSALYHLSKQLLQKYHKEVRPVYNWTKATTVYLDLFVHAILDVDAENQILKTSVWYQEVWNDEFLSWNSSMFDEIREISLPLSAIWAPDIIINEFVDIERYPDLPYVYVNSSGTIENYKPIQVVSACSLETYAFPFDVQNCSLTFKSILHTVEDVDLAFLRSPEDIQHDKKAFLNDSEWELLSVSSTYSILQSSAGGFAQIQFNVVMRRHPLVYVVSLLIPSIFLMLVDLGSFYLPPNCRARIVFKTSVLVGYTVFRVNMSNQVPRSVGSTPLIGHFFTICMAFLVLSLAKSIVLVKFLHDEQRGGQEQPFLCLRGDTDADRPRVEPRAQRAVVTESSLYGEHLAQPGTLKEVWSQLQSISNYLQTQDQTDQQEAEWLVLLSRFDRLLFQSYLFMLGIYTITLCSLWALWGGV
Source text: [3H]granisetron competition binding, HEK293 membranes on 5-HT3AB receptor

[2] = biological target: T2, 5-HT3A receptor (Homo sapiens, UniProt P46098); assay: as above; conditions: for Ki: read-out: pKi (A) (converted); for pKi (A): 0.7 nM [3H]granisetron, 10 mM HEPES pH 7.4, 4 °C, at least 24 h
T2 construct: gene HTR3A; homomeric (pentameric) receptor expressed recombinantly in HEK293 cells; cell membranes
T2 sequence (P46098 24-478): T1 sequence (P46098 24-478)
Source text: [3H]granisetron competition binding, HEK293 membranes on 5-HT3A receptor

Row | Compound | Ki [1] | Ki [2] | pKi (A) [2] | pKi (AB) ([1]; 0.7 nM [3H]granisetron, 10 mM HEPES pH 7.4, 4 °C, at least 24 h)
1 | CN1CCN(c2cnc3cc(Cl)c(Cl)cc3n2)CC1 [compound 7, 6,7-Dichloro-2-(4-methylpiperazin-1-yl)quinoxaline] | 8.51 nM | 3.89 nM | – | –
2 | CN1CCN(c2nc3ccc(Cl)cc3[nH]c2=O)CC1 [compound 22, 7-chloro-3-(4-methylpiperazin-1-yl)quinoxalin-2(1H)-one] | 7.24 nM | 31.6 nM | – | –
3 | CN1CCN(c2nc3cc(Cl)c(Cl)cc3nc2Cl)CC1 [compound 11, 2,6,7-Trichloro-3-(4-methylpiperazin-1-yl)quinoxaline] | 33.1 nM | 8.13 nM | – | –
4 | COc1nc2ccccc2nc1N1CCN(C)CC1 [compound 28, 28] | 4.57 nM | 0.661 nM | – | –
5 | CCc1nc2ccccc2nc1N1CCN(C)CC1 [compound 6, 2-Ethyl-3-(4-methylpiperazin-1-yl)quinoxaline] | 1.45 nM | 0.631 nM | – | –
6 | CN1CCCN(c2nc3ccccc3nc2Cl)CC1 [compound 16, 2-Chloro-3-(4-methyl-1,4-diazepan-1-yl)quinoxaline] | 4.57 nM | 0.776 nM | – | –
7 | CN1CCN(c2cnc3cc(Cl)ccc3n2)CC1 [compound 33, 33] | 102 nM | 16.2 nM | – | –
8 | CN1CCN(c2nc3ccccc3nc2Cl)CC1 [VUF10166, 2-chloro-3-(4-methylpiperazin-1-yl)quinoxaline] | 12.6 nM | – | 9.82±0.26 | –
9 | Cc1nc2ccccc2nc1N1CCN(C)CC1 [compound 26, 26] | 3.8 nM | 2.57 nM | – | –
10 | CN1CCN(c2nc3ccccc3nc2Br)CC1 [compound 14, 2-Bromo-3-(4-methylpiperazin-1-yl)quinoxaline] | 1.41 nM | 0.49 nM | – | –
11 | CN1CCN(c2cnc3ccccc3n2)CC1 [compound 24, 2-(4-methylpiperazin-1-yl)quinoxaline] | – | – | 8.21±0.26 | 9.13±0.30
12 | CN1CCN(c2nc3ccccc3[nH]c2=O)CC1 [compound 1, 3-(4-methylpiperazin-1-yl)quinoxalin-2-ol] | 0.437 nM | 1.17 nM | – | –
13 | CN1CCN(c2nc3ccccc3nc2N)CC1 [compound 10, 3-(4-Methylpiperazin-1-yl)quinoxalin-2-amine] | 30.9 nM | 2.95 nM | – | –

The next lines start with results.

Row | Ki [1] | Ki [2] | Compound | pKi (A) [2] | pKi (AB) ([1]; 0.7 nM [3H]granisetron, 10 mM HEPES pH 7.4, 4 °C, at least 24 h)
14 | 195 nM | 537 nM | CN1CCN(c2nc3ccccc3nc2OC2CCCCC2)CC1 [compound 30, 30] | – | –
15 | 14.1 nM | 1.12 nM | CN1CCN(c2nc3ccc(Cl)cc3nc2Cl)CC1 [compound 23, 3,6-Dichloro-2-(4-methylpiperazin-1-yl)quinoxaline] | – | –
16 | 72.4 nM | 50.1 nM | CN1CCN(c2nc3cc(Cl)c(Cl)cc3[nH]c2=O)CC1 [compound 34, 34] | – | –
17 | 77.6 nM | 32.4 nM | CNC1CCN(c2cnc3ccccc3n2)C1 (stereo not shown) [compound 21, N-Methyl-1-(quinoxalin-2-yl)pyrrolidin-3-amine] | – | –
18 | 33.1 nM | 8.13 nM | CN1CCCN(c2cnc3ccccc3n2)CC1 [compound 19, 2-(4-Methyl-1,4-diazepan-1-yl)quinoxaline] | – | –
19 | 38 nM | 44.7 nM | CN1CCN(c2nc3ccccc3nc2C(F)(F)F)CC1 [compound 27, 27] | – | –
20 | 170 nM | 87.1 nM | CN1CCN(c2nc3ccccc3nc2Oc2ccccc2)CC1 [compound 31, 31] | – | –
21 | 214 nM | 204 nM | CNC1CCN(c2nc3ccccc3nc2Cl)C1 (stereo not shown) [compound 18, 1-(3-Chloroquinoxalin-2-yl)-N-methylpyrrolidin-3-amine] | – | –
22 | 5.75 nM | 1 nM | CCOc1nc2ccccc2nc1N1CCN(C)CC1 [compound 29, 29] | – | –
23 | 75.9 nM | 129 nM | CN1CCN(c2nc3ccccc3nc2OCc2ccccc2)CC1 [compound 32, 32] | – | –
